Assay results: patent US20130157954A1, “METHODS FOR TREATMENT OR PROPHYLAXIS OF KIDNEY OR LIVER DYSFUNCTION” (NPS PHARMACEUTICALS, INC., priority 2010, published 2013)

Assay: Example 1: liver biomarkers (total bilirubin, ALT, AST, ALP) in short bowel syndrome patients, every four weeks for 24 weeks; also sorted by >5% change from baseline
Format: in vivo, Human
Parameters: AST (SGOT) Change from Baseline Median / ALT (SGPT) Median / TOTAL BILIRUBIN Median / TOTAL BILIRUBIN Change from Baseline Median / ALT (SGPT) Change from Baseline Median / AST (SGOT) Median: unit not given here
Conditions: for AST (SGOT) Change from Baseline Median / AST (SGOT) Median / TOTAL BILIRUBIN Change from Baseline Median / TOTAL BILIRUBIN Median / ALKALINE PHOSPHATASE Change from Baseline Median / ALT (SGPT) Change from Baseline Median / ALT (SGPT) Median: 0.10 mg/kg/day; for ALKALINE PHOSPHATASE change from baseline <−5%, number of patients / ALKALINE PHOSPHATASE change from baseline <−5%, percent of patients / ALKALINE PHOSPHATASE change from baseline >5%, number of patients / ALKALINE PHOSPHATASE change from baseline >5%, percent of patients / ALKALINE PHOSPHATASE change from baseline −5% <= and <=5%, number of patients / ALKALINE PHOSPHATASE change from baseline −5% <= and <=5%, percent of patients / ALT (SGPT) change from baseline <−5%, number of patients / ALT (SGPT) change from baseline <−5%, percent of patients / ALT (SGPT) change from baseline >5%, number of patients / ALT (SGPT) change from baseline >5%, percent of patients / ALT (SGPT) change from baseline −5% <= and <=5%, number of patients / ALT (SGPT) change from baseline −5% <= and <=5%, percent of patients / AST (SGOT) change from baseline <−5%, number of patients / AST (SGOT) change from baseline <−5%, percent of patients / AST (SGOT) change from baseline >5%, number of patients / AST (SGOT) change from baseline >5%, percent of patients / AST (SGOT) change from baseline −5% <= and <=5%, number of patients / AST (SGOT) change from baseline −5% <= and <=5%, percent of patients / TOTAL BILIRUBIN change from baseline <−5%, number of patients / TOTAL BILIRUBIN change from baseline <−5%, percent of patients / TOTAL BILIRUBIN change from baseline >5%, number of patients / TOTAL BILIRUBIN change from baseline >5%, percent of patients / TOTAL BILIRUBIN change from baseline −5% <= and <=5%, number of patients / TOTAL BILIRUBIN change from baseline −5% <= and <=5%, percent of patients: 0.1 mg/kg/day
Description: Human patients with short bowel syndrome were divided into three groups: a control group (16 total individuals) to receive placebo, an experimental group (35 total individuals) to receive teduglutide at 0.05 mg/kg/day throughout the study, and an experimental group (32 total individuals) to receive teduglutide at 0.1 mg/kg/day throughout the study. Patients were treated by subcutaneous injection of placebo or the appropriate dose of teduglutide. As individuals with short bowel syndrome are likely to experience associated liver and kidney disease, known biomarkers of liver and kidney function were monitored every four weeks, for 24 weeks. The liver biomarkers tested included total bilirubin, ALT and AST and ALP. The kidney biomarkers tested included urea nitrogen, creatinine and GFR. Before administration of placebo or teduglutide, diagnostic biomarker levels were tested to establish a baseline for each individual.
To visualize the effect of GLP-2 on the levels of the diagnostic biomarkers, the average change from baseline was calculated for the placebo and teduglutide treated groups for each visit after a baseline was established. The average change from baseline of each group is depicted in FIGS. 1-7. The numerical figures for each diagnostic biomarker at each time point are depicted in Table 1.
The efficacy of teduglutide in treating liver dysfunction was further tested by sorting the data into two groups: individuals with abnormal baseline values of liver diagnostic biomarkers; and individuals with normal baseline values of liver diagnostic biomarkers. The mean diagnostic biomarker change from baseline for these two groups is shown for ALT (FIGS. 5 and 6) and AST (FIGS. 7 and 8). […] These changes were significant when compared to baseline levels for the group, and when compared to placebo (see FIGS. 5 and 7).
The raw data for this sorting is reproduced in Table 2 below.

For `CC[C@H](C)[C@H](NC(=O)[C@H](Cc1ccccc1)NC(=O)[C@H](CC(=O)O)NC(=O)[C@H](CCCNC(=N)N)NC(=O)[C@H](C)NC(=O)[C@H](C)NC(=O)[C@H](CC(C)C)NC(=O)[C@H](CC(N)=O)NC(=O)[C@H](CC(=O)O)NC(=O)[C@H](CC(C)C)NC(=O)[C@@H](NC(=O)[C@@H](NC(=O)[C@H](CC(N)=O)NC(=O)[C@H](CCSC)NC(=O)[C@H](CCC(=O)O)NC(=O)[C@H](CC(=O)O)NC(=O)[C@H](CO)NC(=O)[C@H](Cc1ccccc1)NC(=O)[C@H](CO)NC(=O)CNC(=O)[C@H](CC(=O)O)NC(=O)CNC(=O)[C@@H](N)Cc1c[nH]cn1)[C@@H](C)O)[C@@H](C)CC)C(=O)N[C@@H](CC(N)=O)C(=O)N[C@@H](Cc1c[nH]c2ccccc12)C(=O)N[C@@H](CC(C)C)C(=O)N[C@H](C(=O)N[C@@H](CCC(N)=O)C(=O)N[C@H](C(=O)N[C@@H](CCCCN)C(=O)N[C@H](C(=O)N[C@H](C(=O)N[C@@H](CC(=O)O)C(=O)O)[C@@H](C)O)[C@@H](C)CC)[C@@H](C)O)[C@@H](C)CC` [teduglutide], the “AST (SGOT) Change from Baseline Median” value (DW4) was −5.0, the “AST (SGOT) Median” value (DW4) was 28.0 and the “TOTAL BILIRUBIN Change from Baseline Median” value (DW4) was −1.0. The “TOTAL BILIRUBIN Median” value (DW4) was 7.0, the “ALKALINE PHOSPHATASE Change from Baseline Median” value (DW8) was −20.0 and the “ALT (SGPT) Change from Baseline Median” value (DW8) was −8.0. The “AST (SGOT) Change from Baseline Median” value (DW8) was −5.0, the “AST (SGOT) Median” value (DW8) was 28.0 and the “TOTAL BILIRUBIN Change from Baseline Median” value (DW8) was −1.0. For the same molecule, the “TOTAL BILIRUBIN Median” value (DW8) was 7.0, the “ALT (SGPT) Change from Baseline Median” value (DW12) was −11.0 and the “ALT (SGPT) Median” value (DW12) was 35.0. For the same molecule, the “AST (SGOT) Change from Baseline Median” value (DW12) was −3.5, the “TOTAL BILIRUBIN Change from Baseline Median” value (DW12) was 0.0 and the “TOTAL BILIRUBIN Median” value (DW12) was 7.0. The “ALT (SGPT) Change from Baseline Median” value (DW16) was −10.0, the “ALT (SGPT) Median” value (DW16) was 30.0 and the “AST (SGOT) Change from Baseline Median” value (DW16) was −4.0. For the same molecule, the “AST (SGOT) Median” value (DW16) was 30.0, the “TOTAL BILIRUBIN Change from Baseline Median” value (DW16) was −0.5 and the “TOTAL BILIRUBIN Median” value (DW16) was 7.5. For the same molecule, the “ALKALINE PHOSPHATASE Change from Baseline Median” value (DW20) was −23.0, the “ALT (SGPT) Change from Baseline Median” value (DW20) was −9.0 and the “ALT (SGPT) Median” value (DW20) was 29.0. For the same molecule, the “AST (SGOT) Change from Baseline Median” value (DW20) was −2.5, the “AST (SGOT) Median” value (DW20) was 30.0 and the “TOTAL BILIRUBIN Change from Baseline Median” value (DW20) was 0.0. The “TOTAL BILIRUBIN Median” value (DW20) was 7.0, the “ALKALINE PHOSPHATASE Change from Baseline Median” value (DW 24) was −21.0 and the “ALT (SGPT) Change from Baseline Median” value (DW 24) was −4.0. The “ALT (SGPT) Median” value (DW 24) was 37.0, the “AST (SGOT) Change from Baseline Median” value (DW 24) was −3.0 and the “AST (SGOT) Median” value (DW 24) was 32.0. The “TOTAL BILIRUBIN Change from Baseline Median” value (DW 24) was 0.0, the “TOTAL BILIRUBIN Median” value (DW 24) was 9.0 and the “ALKALINE PHOSPHATASE change from baseline <−5%, number of patients” value (week 4) was 17. The “ALKALINE PHOSPHATASE change from baseline <−5%, percent of patients” value (week 4) was “(53.1%)”, the “ALKALINE PHOSPHATASE change from baseline >5%, number of patients” value (week 4) was 11 and the “ALKALINE PHOSPHATASE change from baseline >5%, percent of patients” value (week 4) was “(34.4%)”. The “ALKALINE PHOSPHATASE change from baseline −5% <= and <=5%, number of patients” value (week 4) was 4, the “ALKALINE PHOSPHATASE change from baseline −5% <= and <=5%, percent of patients” value (week 4) was “(12.5%)” and the “ALT (SGPT) change from baseline <−5%, number of patients” value (week 4) was 20. For the same molecule, the “ALT (SGPT) change from baseline <−5%, percent of patients” value (week 4) was “(62.5%)”, the “ALT (SGPT) change from baseline >5%, number of patients” value (week 4) was 10 and the “ALT (SGPT) change from baseline >5%, percent of patients” value (week 4) was “(31.3%)”. For the same molecule, the “ALT (SGPT) change from baseline −5% <= and <=5%, number of patients” value (week 4) was 2, the “ALT (SGPT) change from baseline −5% <= and <=5%, percent of patients” value (week 4) was “(6.3%)” and the “AST (SGOT) change from baseline <−5%, number of patients” value (week 4) was 17. For the same molecule, the “AST (SGOT) change from baseline <−5%, percent of patients” value (week 4) was “(53.1%)”, the “AST (SGOT) change from baseline >5%, number of patients” value (week 4) was 10 and the “AST (SGOT) change from baseline >5%, percent of patients” value (week 4) was “(31.3%)”. The “AST (SGOT) change from baseline −5% <= and <=5%, number of patients” value (week 4) was 4, the “AST (SGOT) change from baseline −5% <= and <=5%, percent of patients” value (week 4) was “(12.5%)” and the “TOTAL BILIRUBIN change from baseline <−5%, number of patients” value (week 4) was 16. The “TOTAL BILIRUBIN change from baseline <−5%, percent of patients” value (week 4) was “(50.0%)”, the “TOTAL BILIRUBIN change from baseline >5%, number of patients” value (week 4) was 12 and the “TOTAL BILIRUBIN change from baseline >5%, percent of patients” value (week 4) was “(37.5%)”. The “TOTAL BILIRUBIN change from baseline −5% <= and <=5%, number of patients” value (week 4) was 3, the “TOTAL BILIRUBIN change from baseline −5% <= and <=5%, percent of patients” value (week 4) was “(9.4%)” and the “ALKALINE PHOSPHATASE change from baseline <−5%, number of patients” value (week 8) was 24. For the same molecule, the “ALKALINE PHOSPHATASE change from baseline <−5%, percent of patients” value (week 8) was “(75.0%)”, the “ALKALINE PHOSPHATASE change from baseline >5%, number of patients” value (week 8) was 5 and the “ALKALINE PHOSPHATASE change from baseline >5%, percent of patients” value (week 8) was “(15.6%)”. For the same molecule, the “ALKALINE PHOSPHATASE change from baseline −5% <= and <=5%, number of patients” value (week 8) was 2, the “ALKALINE PHOSPHATASE change from baseline −5% <= and <=5%, percent of patients” value (week 8) was “(6.3%)” and the “ALT (SGPT) change from baseline <−5%, number of patients” value (week 8) was 20. The “ALT (SGPT) change from baseline <−5%, percent of patients” value (week 8) was “(62.5%)”, the “ALT (SGPT) change from baseline >5%, number of patients” value (week 8) was 8 and the “ALT (SGPT) change from baseline >5%, percent of patients” value (week 8) was “(25.0%)”. The “ALT (SGPT) change from baseline −5% <= and <=5%, number of patients” value (week 8) was 2, the “ALT (SGPT) change from baseline −5% <= and <=5%, percent of patients” value (week 8) was “(6.3%)” and the “AST (SGOT) change from baseline <−5%, number of patients” value (week 8) was 21. The “AST (SGOT) change from baseline <−5%, percent of patients” value (week 8) was “(65.6%)”, the “AST (SGOT) change from baseline >5%, number of patients” value (week 8) was 5 and the “AST (SGOT) change from baseline >5%, percent of patients” value (week 8) was “(15.6%)”. For the same molecule, the “AST (SGOT) change from baseline −5% <= and <=5%, number of patients” value (week 8) was 4, the “AST (SGOT) change from baseline −5% <= and <=5%, percent of patients” value (week 8) was “(12.5%)” and the “TOTAL BILIRUBIN change from baseline <−5%, number of patients” value (week 8) was 16. For the same molecule, the “TOTAL BILIRUBIN change from baseline <−5%, percent of patients” value (week 8) was “(50.0%)”, the “TOTAL BILIRUBIN change from baseline >5%, number of patients” value (week 8) was 7 and the “TOTAL BILIRUBIN change from baseline >5%, percent of patients” value (week 8) was “(21.9%)”. For the same molecule, the “TOTAL BILIRUBIN change from baseline −5% <= and <=5%, number of patients” value (week 8) was 6, the “TOTAL BILIRUBIN change from baseline −5% <= and <=5%, percent of patients” value (week 8) was “(18.8%)” and the “ALKALINE PHOSPHATASE change from baseline <−5%, number of patients” value (week 12) was 19. The “ALKALINE PHOSPHATASE change from baseline <−5%, percent of patients” value (week 12) was “(59.4%)”, the “ALKALINE PHOSPHATASE change from baseline >5%, number of patients” value (week 12) was 10 and the “ALKALINE PHOSPHATASE change from baseline >5%, percent of patients” value (week 12) was “(31.3%)”. The “ALKALINE PHOSPHATASE change from baseline −5% <= and <=5%, number of patients” value (week 12) was 1, the “ALKALINE PHOSPHATASE change from baseline −5% <= and <=5%, percent of patients” value (week 12) was “(3.1%)” and the “ALT (SGPT) change from baseline <−5%, number of patients” value (week 12) was 20. For the same molecule, the “ALT (SGPT) change from baseline <−5%, percent of patients” value (week 12) was “(62.5%)” and the “ALT (SGPT) change from baseline >5%, number of patients” value (week 12) was 7.
